Test system: 817829-284-R-J1-PDC complex spheroids, viability
Assay: Anticancer human tumor 817829-284-R-J1-PDC patient-derived colon adenocarcinoma cell line growth inhibition [GQUAD]
Settings: for IC50: curve of first compound; for viability, T/C: stronger effect = lower value
Text: DNA G-quadruplex Stabilizer Agents in Combinations in Complex Spheroids
A high-throughput screen of multi-cell type tumor spheroids was designed to identify active combinations of DNA G-quadruplex stabilizer agents and targeted small molecules. Complex spheroids include a stromal component modeled by human endothelial cells (HUVEC) and fibroblasts modeled by human mesenchymal stem cells (MSCs). The concentration ranges selected for each drug and investigational agent were based upon clinically achievable concentrations if the clinical Cmax of the agent was known.
Compounds. The drugs and investigational agents: pidnarulex (CX-5461; NSC782164), APTO-253 (NSC789042), BRACO-19 (NSC847499), peposertib (NSC802822), ceralasertib (NSC780249), elimusertib (NSC800525), camonsertib (NSC841442), AZD-1390 (NSC803789), olaparib (NSC753686), talazoparib (NSC767125), ART-558 (NSC835418), sotorasib (NSC818433), MRTX-1133 (NSC836407), SN-38 (NSC673596), topotecan (NSC609699), etoposide (NSC141540), doxorubicin (NSC123127), gemcitabine (NSC613327), 5-fluorouracil (NSC19893), paclitaxel (NSC125973), vemurafenib (NSC761431), panobinostat (NSC761190), R-306465 (JNJ-16241199; NSC773264), adavosertib (NSC754352), TP-3654 (NSC805149), carboplatin (NSC241240), KSQ-4279 (NSC840948), and staurosporine (NSC755774) were obtained from the National Cancer Institute (NCI) Developmental Therapeutics Program Chemical Repository (34). The FDA-approved anticancer drug set is available from the NCI Developmental Therapeutics Program. […] The stock solutions were prepared in dimethyl sulfoxide (DMSO, Sigma-Aldrich, St. Louis, MO, cat. D2650) at 800-fold the tested concentration and stored at -70 degrees C prior to their use. All drugs and investigational agents were tested over a range starting from a high concentration at or near the clinical Cmax and decreasing in half-log increments. If the clinical Cmax for an agent had not been determined, the highest concentration tested was 10 microM.
2.3 Cell Culture. All cells were maintained in an incubator at 37 degrees C and 5% CO2 with 95% humidity. The PDC lines were cultured according to standard operating procedures established by the NCI PDMR. All PDCs were thawed and cultured in Matrigel-coated flasks prepared with a working solution of 1X Ham's F-12 nutrient mix, without supplementation (Invitrogen, cat. 11765054), 100 U/mL penicillin-streptomycin (Invitrogen, cat. 15140122), and 2.5% Matrigel (Corning Inc., cat. 354248) for the first three passages. The 857933-349-R-J2-PDC line was cultured in 6C/Colon 1B media, which includes advanced DMEM/F-12 (Thermo Fisher Scientific, cat. 12634028), 10 mM HEPES (Thermo Fisher Scientific, cat. 15630080), 1X GlutaMAX supplement (Thermo Fisher Scientific, cat. 35050061), 0.1 mg/mL primocin (InvivoGen, cat. ant-pm-2), 10% defined fetal bovine serum, heat inactivated (HyClone Laboratories Inc., cat. SH30070.03HI), 50% L-WRN conditioned media (ATCC, cat. CRL-3276), 1.25 mM N-Acetyl-L-cysteine (Sigma-Aldrich, cat. A9165), 10 mM nicotinamide (Sigma-Aldrich, cat. N0636), 1X B-27 supplement (Thermo Fisher Scientific, cat. 17504044), 1X N-2 supplement (Thermo Fisher Scientific, cat. 17502048), 10 microM Y-27632 dihydrochloride (Tocris Bioscience, cat. 1254), and 50 ng/mL human EGF recombinant protein (Thermo Fisher Scientific, cat. PHG0311). The 485176-168-R4-J1-PDC line was cultured in Panc media, which includes all 6C/Colon 1B media components plus 100 ng/mL human FGF-10 (Thermo Fisher Scientific, cat. 100-26), 500 nM SB-431542 (Selleckchem, cat. S1067), and gastrin (Tocris, cat. 3006).
[…]
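Note: spheroids exposed to agents for 7 days before readout.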
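Throughout, for viability, T/C: percent viability relative to DMSO vehicle control taken as 100%.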

Compound: COc1cc(C2c3cc4c(cc3C(OC3OC5COC(C)OC5C(O)C3O)C3COC(=O)C23)OCO4)cc(OC)c1O (configuration not stated) + Cc1cnc(CNC(=O)c2c(=O)c3ccc(N4CCCN(C)CC4)nc3n3c2sc2ccccc23)cn1
- IC50 (second compound 0.0316 µM): 39.3 nM
- IC50 (second compound 0.1 µM): < 31.6 nM
- IC50 (second compound 0.316 µM): < 31.6 nM
- IC50 (second compound 1 µM): < 31.6 nM
- IC50 (second compound 3.16 µM): < 31.6 nM
- IC50 (second compound 10 µM): < 31.6 nM
- viability, T/C (second compound 0.0316 µM, first compound 0.0316 µM): 57.3%
- viability, T/C (second compound 0.0316 µM, first compound 0.1 µM): 30.7%
- viability, T/C (second compound 0.0316 µM, first compound 0.316 µM): 35.5%
- viability, T/C (second compound 0.0316 µM, first compound 1 µM): 23.1%
- viability, T/C (second compound 0.0316 µM, first compound 3.16 µM): 15.1%
- viability, T/C (second compound 0.0316 µM, first compound 10 µM): 7.07%
- viability, T/C (second compound 0.1 µM, first compound 0.0316 µM): 30.4%
- viability, T/C (second compound 0.1 µM, first compound 0.1 µM): 31.3%
- viability, T/C (second compound 0.1 µM, first compound 0.316 µM): 22.9%
- viability, T/C (second compound 0.1 µM, first compound 1 µM): 24.6%
- viability, T/C (second compound 0.1 µM, first compound 3.16 µM): 15%
- viability, T/C (second compound 0.1 µM, first compound 10 µM): 6.35%
- viability, T/C (second compound 0.316 µM, first compound 0.0316 µM): 22.4%
- viability, T/C (second compound 0.316 µM, first compound 0.1 µM): 27.7%
- viability, T/C (second compound 0.316 µM, first compound 0.316 µM): 23.2%
- viability, T/C (second compound 0.316 µM, first compound 1 µM): 21%
- viability, T/C (second compound 0.316 µM, first compound 3.16 µM): 11.9%
- viability, T/C (second compound 0.316 µM, first compound 10 µM): 7.02%
- viability, T/C (second compound 1 µM, first compound 0.0316 µM): 18.7%
- viability, T/C (second compound 1 µM, first compound 0.1 µM): 21.1%
- viability, T/C (second compound 1 µM, first compound 0.316 µM): 18.8%
- viability, T/C (second compound 1 µM, first compound 1 µM): 22.5%
- viability, T/C (second compound 1 µM, first compound 3.16 µM): 12.2%
- viability, T/C (second compound 1 µM, first compound 10 µM): 5.25%
- viability, T/C (second compound 3.16 µM, first compound 0.0316 µM): 19.6%
- viability, T/C (second compound 3.16 µM, first compound 0.1 µM): 22.5%
- viability, T/C (second compound 3.16 µM, first compound 0.316 µM): 19.5%
- viability, T/C (second compound 3.16 µM, first compound 1 µM): 15.9%
- viability, T/C (second compound 3.16 µM, first compound 3.16 µM): 9.99%
- viability, T/C (second compound 3.16 µM, first compound 10 µM): 5.08%
- viability, T/C (second compound 10 µM, first compound 0.0316 µM): 0.08%
- viability, T/C (second compound 10 µM, first compound 0.1 µM): 0.12%
- viability, T/C (second compound 10 µM, first compound 0.316 µM): 0.15%
- viability, T/C (second compound 10 µM, first compound 1 µM): 0.11%
- viability, T/C (second compound 10 µM, first compound 3.16 µM): 0.15%
- viability, T/C (second compound 10 µM, first compound 10 µM): 0.14%

Reference: PubChem BioAssay AID2060503 (Molecular Pharmacology Branch, DTP, NCI, 2025)
